Earlier results as cited in patent US6723506B2, “Method of identifying PAX8-PPAR gamma-nucleic acid molecules” (Brigham and Women's Hospital, priority 2000, dated 2004).

Test system: PML-RAR (retinoic acid receptor α) translocation
Conditions: patients harboring the PML-RAR translocation

**Q.** For `CC1=C(/C=C/C(C)=C/C=C/C(C)=C/C(=O)O)C(C)(C)CCC1` [all-trans retinoic acid], which “remission in APML patients” value is on record?
**A.** induces remission in nearly every patient
